From PubChem BioAssay (NCI)
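Five compound concentrations were applied to cells in 96-well plates for 48 hours; endpoints were derived by simple linear interpolation of the resulting dose-response curve. At the GI50, growth is halved. TGI is the concentration that stops growth completely.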

How the values were obtained:
Assay in all cases: NCI tumour cell line growth inhibition, 48 h
DLD-1 colon = system: DLD-1 colon
LXFL 529 NSCLC = system: LXFL 529 NSCLC
SF-295 CNS = system: SF-295 CNS
NCI-H522 lung = system: NCI-H522 lung
M14 melanoma = system: M14 melanoma
A549 NSCLC = system: A549 NSCLC
ACHN renal = system: ACHN renal
HCT-116 colon = system: HCT-116 colon
HL-60(TB) leukemia = system: HL-60(TB) leukemia
OVCAR-4 ovarian = system: OVCAR-4 ovarian

Structure (SMILES)	TGI (DLD-1 colon)	TGI (LXFL 529 NSCLC)	TGI (SF-295 CNS)	TGI (NCI-H522 lung)	TGI (M14 melanoma)	TGI (A549 NSCLC)	TGI (ACHN renal)	TGI (HCT-116 colon)	TGI (HL-60(TB) leukemia)	TGI (OVCAR-4 ovarian)	GI50 (HL-60(TB) leukemia)
Cn1nc(-c2ccccc2)c(C(=O)/C=C/c2ccc(Cl)cc2)c(N2CCCCC2)c1=O	7.08 µM	3.33 µM	2.14 µM	4.26 µM	9.17 µM	8.65 µM	4.31 µM	3.47 µM	4 µM		
CC(=O)CC(N)=O	> 100 µM	> 100 µM	> 100 µM	> 100 µM	> 100 µM	> 100 µM	> 100 µM	> 100 µM	> 100 µM	> 100 µM	
CCOC(=O)NC1C2CC(=O)OC(O2)C1OC(C)=O (stereo not given)	> 100 µM	> 100 µM	> 100 µM	> 100 µM	> 100 µM	> 100 µM	> 100 µM	> 100 µM	> 100 µM	> 100 µM	> 100 µM
O=C(Nc1ccc(Cl)cc1Cl)C1C(=O)C(=O)N(c2ccc(Cl)cc2Cl)C1=O (stereo not given)	> 100 µM	> 100 µM		> 100 µM	> 100 µM	> 100 µM	> 100 µM	> 100 µM	> 100 µM	> 100 µM	
CCOC(=O)Cc1ccc2c(c1O)C(=O)c1c(ccc(CC(=O)OCC)c1O)C2=O	> 100 µM	> 100 µM	> 100 µM	> 100 µM	> 100 µM	> 100 µM	> 100 µM	> 100 µM	> 100 µM		
CC1=C(C(=O)Nc2cc(=O)n(C)c(=O)n2C)C(c2cccc([N+](=O)[O-])c2)C(C(=O)Nc2cc(=O)n(C)c(=O)n2C)=C(C)N1	> 100 µM	> 100 µM	> 100 µM	> 100 µM	> 100 µM	> 100 µM	> 100 µM		> 100 µM	> 100 µM	
c1ccc2c(NCCCCCCNc3c4ccccc4nc4ccccc34)c3ccccc3nc2c1	3.29 µM	2.42 µM	2.18 µM	1.66 µM	2.58 µM	2.89 µM	1.72 µM	0.693 µM		2.18 µM	
CC(C)(C)CC(C)(C)c1cc2c(O)c(c1)Cc1cc(C(C)(C)CC(C)(C)C)cc(c1O)Cc1cc(C(C)(C)CC(C)(C)C)cc(c1O)Cc1cc(C(C)(C)CC(C)(C)C)cc(c1O)Cc1cc(C(C)(C)CC(C)(C)C)cc(c1O)C2	> 100 µM	> 100 µM	> 100 µM	> 100 µM	> 100 µM	> 100 µM	> 100 µM	> 100 µM	> 100 µM	> 100 µM	
CCOc1ccc(N=Cc2ccc3cc(C)ccc3n2)cc1	> 100 µM	> 100 µM	> 100 µM	> 100 µM	> 100 µM	> 100 µM	> 100 µM		48 µM	> 100 µM	
O=C(O)Cc1cc(=O)[nH]c2c1/C(=N/O)CCC2	> 100 µM	> 100 µM	> 100 µM	> 100 µM	> 100 µM	> 100 µM	> 100 µM		> 100 µM		
C#CCOCn1cnc2c(Sc3c([N+](=O)[O-])ncn3C)ncnc21	> 100 µM	> 100 µM	> 100 µM	> 100 µM	> 100 µM	> 100 µM	> 100 µM		> 100 µM	> 100 µM	
COC(=O)C1=C(O)c2cc(-c3ccccc3)c(-c3ccccc3)c(C#N)c2NC(=O)C1	> 100 µM	> 100 µM	42.1 µM		> 100 µM	54.4 µM	> 100 µM	> 100 µM		> 100 µM	
